Laboratory results from US11667602B2, “Compounds and their use” (AstraZeneca AB, priority 2020, dated 2023).
pEC50: −log10 of the molar value. Values after ≈ are worked out from the molar mass of the structure shown.

Assays:
[1] = Human Plasma Protein Binding (Test B); assay type: in vitro ADME; conditions: fraction unbound (fu)
How it was run: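 Human plasma protein binding run per the published Wernevik et al. (2020) integrated DMPK panel protocol. Values are fraction unbound (fu, % free); repeat runs averaged arithmetically.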

[2] = Human Liver Microsomal Stability (Test C); assay type: in vitro ADME; conditions: for microsomal CLint: human, liver microsomes
How it was run: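 Human liver microsome incubation per the Wernevik et al. integrated DMPK panel protocol. Intrinsic clearance reported as CLint in μl/min/mg protein, averaged arithmetically over repeat runs.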

Solubility (Test F) = assay type: physicochemical; conditions: arithmetic mean if run multiple times
Protocol: The assay was conducted according to the Solubility Assay described in pages 164-167 of Wernevik, J. et al., “A Fully Integrated Assay Panel for Early Drug Metabolism and Pharmacokinetics Profiling”, Assay and Drug Development Technologies, 2020, 18(4), 157-179. Data are reported in Table 36 as solubility ([…]. Where the assay was run multiple times for the same compound, the arithmetic mean is reported.

[3] = Rat Hepatocyte Stability (Test E); assay type: in vitro ADME; conditions: geometric mean if run multiple times; for hepatocyte CLint: rat, hepatocytes
How it was run: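 Run per the published AstraZeneca-type rat hepatocyte stability protocol (Wernevik et al. panel). Values are mean intrinsic clearance, Clint in μl/min/10^6 cells; geometric mean used for repeated runs.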

human RXFP1 = target: T1, human RXFP1 (Homo sapiens, UniProt Q9HBX9); assay: RXFP1 Hu cAMP (Test A); assay type: cell-based; set-up: expressed in transfected cells; host or cells: Jump-In T-REx CHO-K1 cells (ThermoFisher), induced with 10 ng/ml doxycycline for 24 h; conditions: RXFP1 Hu cAMP; for pEC50: read-out: Test A EC50
T1 sequence (Q9HBX9 1-757): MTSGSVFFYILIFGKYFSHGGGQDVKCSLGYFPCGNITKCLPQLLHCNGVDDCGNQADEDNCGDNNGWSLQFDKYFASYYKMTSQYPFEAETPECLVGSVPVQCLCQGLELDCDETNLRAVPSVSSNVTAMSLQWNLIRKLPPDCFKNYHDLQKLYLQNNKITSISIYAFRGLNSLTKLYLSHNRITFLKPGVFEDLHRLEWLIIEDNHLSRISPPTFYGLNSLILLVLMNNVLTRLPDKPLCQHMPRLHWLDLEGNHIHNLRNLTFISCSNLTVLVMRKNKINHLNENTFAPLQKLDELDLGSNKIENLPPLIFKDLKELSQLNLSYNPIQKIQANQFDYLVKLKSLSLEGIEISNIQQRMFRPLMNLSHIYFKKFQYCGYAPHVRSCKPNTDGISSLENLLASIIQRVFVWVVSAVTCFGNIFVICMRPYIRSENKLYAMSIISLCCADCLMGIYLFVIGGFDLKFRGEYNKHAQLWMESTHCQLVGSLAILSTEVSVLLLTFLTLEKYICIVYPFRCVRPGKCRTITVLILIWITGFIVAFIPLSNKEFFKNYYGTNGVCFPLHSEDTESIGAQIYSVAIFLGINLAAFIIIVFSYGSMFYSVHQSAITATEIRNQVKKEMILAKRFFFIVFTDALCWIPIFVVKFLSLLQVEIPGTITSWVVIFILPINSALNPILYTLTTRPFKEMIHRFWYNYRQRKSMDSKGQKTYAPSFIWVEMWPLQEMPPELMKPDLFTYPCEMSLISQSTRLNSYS
How it was run: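 Doxycycline-induced (10 ng/ml, 24 h) CHO-K1 cells stably expressing human RXFP1; cAMP read by competitive HTRF after 2 h at room temperature, with 0.5 mM IBMX final.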

[4] = Human Hepatocyte Stability (Test D); assay type: in vitro ADME; conditions: geometric mean if run multiple times; for hepatocyte CLint at 1 µM: human, cryopreserved pooled human hepatocytes (LiverPool 10-Donor)
How it was run: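 Pooled 10-donor cryopreserved human hepatocytes (≥80% viable) in L-15 medium at 0.25×10^6 cells per 0.25 mL well. Compound added from 100 μM acetonitrile solution; incubated at 37 °C with shaking, acetonitrile-quenched, LC-MS analysed. Clint (μL/min/10^6 cells) from ln % parent vs time slope; geometric mean of repeat runs.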

| SMILES | Test B Human Plasma Protein Binding (% free) [1] [% free] | microsomal CLint [2] [µL/min/mg] | solubility (Solubility (Test F)) [µM] | hepatocyte CLint [3] [µL/min/1e6 cells] | Test A Sinf (human RXFP1) [%] | pEC50 (human RXFP1) | hepatocyte CLint at 1 µM [4] [µL/min/1e6 cells] | Test C Human Liver Microsomal Stability Clint ([2]; human liver microsomes) [µL/min/mg] | Test E Rat Hepatocyte Stability Clint ([3]; rat hepatocytes) [μL/min/10^6 cells] | Test D Human Hepatocyte Stability Clint ([4]; human hepatocytes) [μL/min/10^6 cells] |
| --- | --- | --- | --- | --- | --- | --- | --- | --- | --- | --- |
| COc1cc(F)c(O[C@H]2CC[C@@H](C(=O)O)CC2)cc1C(=O)N[C@H]1[C@@H](C(=O)Nc2ccc(OC)c(S(=O)(=O)C(F)(F)F)c2)[C@@H]2C=C[C@H]1C2 [Example 497, (1S,4s)-4-(2-Fluoro-4-methoxy-5-(((1R,2R,3S,4S)-3-((4-methoxy-3-((trifluoromethyl)sulfonyl)phenyl)carbamoyl)bicyclo[2.2.1]hept-5-en-2-yl)carbamoyl)phenoxy)cyclohexane-1-carboxylic acid] | 3.3 | < 3 | > 1000 | 19 | 108 | 6.49 | 4.4 | – | – | – |
| COc1cc(F)c(-c2ccc(S(N)(=O)=O)cc2)cc1C(=O)N[C@@H]1[C@H]2CC[C@H](C2)[C@@H]1C(=O)Nc1cccc(S(=O)(=O)C(F)(F)F)c1 [Example 248] | <3.3 | 74 | 2 (≈ 1.34 µg/mL) | 32 | 108 | 6.66 | 18 | – | – | – |
| COc1cc(F)c(O[C@H]2CC[C@@H](C(N)=O)CC2)cc1C(=O)N[C@H]1[C@@H](C(=O)Nc2ccc(F)c(C(F)(F)F)c2)[C@@H]2C=C[C@H]1C2 [Example 499, (1S,2S,3R,4R)-3-(5-(((1s,4S)-4-Carbamoylcyclohexyl)oxy)-4-fluoro-2-methoxybenzamido)-N-(4-fluoro-3-(trifluoromethyl)phenyl)bicyclo[2.2.1]hept-5-ene-2-carboxamide] | 0.51 | 200 | 13 (≈ 7.9 µg/mL) | 96 | 128 | 7.00 | 28 | – | – | – |
| COc1cc(F)c(O[C@H]2CC[C@@](C)(C(=O)O)CC2)cc1C(=O)N[C@@H]1[C@H]2CC[C@H](C2)[C@@H]1C(=O)NCC(C)(C)C#N [Example 47] | 21 | < 3 | > 1000 | 17 | 111 | 6.70 | < 1 | – | – | – |
| COc1cc(F)c(-c2cccc(C(=O)O)c2)cc1C(=O)N[C@H]1[C@@H](C(=O)Nc2cccc(S(=O)(=O)C(F)(F)F)c2)[C@@H]2C=C[C@H]1C2 (single isomer, unassigned) [Example 554] | <0.30 | < 3 | 700 (≈ 443 µg/mL) | 18 | 103 | – | 5.4 | – | – | – |
| COc1cc(F)c(OCCCCCCC(=O)O)cc1C(=O)N[C@@H]1[C@H]2CC[C@H](C2)[C@@H]1C(=O)Nc1cccc(S(=O)(=O)C(F)(F)F)c1 [Example 436] | 0.82 | 70 | 220 (≈ 145 µg/mL) | > 300 | 115 | 6.27 | 97 | – | – | – |
| COc1cc(F)c(O[C@H]2CC[C@@](C)(C(=O)O)CC2)cc1C(=O)N[C@@H]1COC[C@@H]1C(=O)Nc1cccc(S(=O)(=O)C(F)(F)F)c1 (relative stereo) [Example 561, (1R,4s)-4-(2-Fluoro-4-methoxy-5-(((3S*,4R*)-4-((3-((trifluoromethyl)sulfonyl)phenyl)carbamoyl)tetrahydrofuran-3-yl)carbamoyl)phenoxy)-1-methylcyclohexane-1-carboxylic acid] | 3.7 | – | 930 (≈ 601 µg/mL) | – | 104 | 6.89 | – | 17 | 55 | 6.3 |
| COc1cc(F)c(O[C@H]2CC[C@@H](C(=O)O)CC2)cc1C(=O)N[C@@H]1[C@H]2CC[C@H](C2)[C@@H]1C(=O)Nc1ccc(C(F)F)cc1 [Example 181, (1S,4s)-4-(5-(((1S,2R,3S,4R)-3-((4-(Difluoromethyl)phenyl)carbamoyl)bicyclo[2.2.1]heptan-2-yl)carbamoyl)-2-fluoro-4-methoxyphenoxy)cyclohexane-1-carboxylic acid] | 2.3 | 13 | 680 (≈ 391 µg/mL) | 48 | 95 | 6.22 | 4.1 | – | – | – |
| COc1cc(F)c(O[C@H]2CC[C@@](C)(C(=O)O)CC2)cc1C(=O)N[C@@H]1[C@H]2CC[C@H](C2)[C@@H]1C(=O)N[C@H](C)C1(C)CC1 (racemic) [Example 39] | 4.8 | 24 | 980 (≈ 534 µg/mL) | 59 | 96 | 6.13 | 8.2 | – | – | – |
| COc1cc(F)c(O[C@H]2CC[C@@](C)(C(=O)O)CC2)cc1C(=O)N[C@@H]1[C@H]2CC[C@H](C2)[C@@H]1C(=O)NCC1(F)CCOCC1 [Example 146, (1S,4s)-4-(2-Fluoro-5-(((1S,2R,3S,4R)-3-(((4-fluorotetrahydro-2H-pyran-4-yl)methyl)carbamoyl)bicyclo[2.2.1]heptan-2-yl)carbamoyl)-4-methoxyphenoxy)-1-methylcyclohexane-1-carboxylic acid] | 24 | < 3 | 1000 (≈ 579 µg/mL) | 14 | 87 | < 5.72 | < 1 | – | – | – |
| COc1cc(F)c(O[C@H]2CC[C@@H](C(=O)O)CC2)cc1C(=O)N[C@@H]1CCC[C@@H]1C(=O)Nc1ccc(F)c(C(F)(F)F)c1 [Example 492] | 1.8 | 36 | 1000 (≈ 585 µg/mL) | 19 | 106 | 6.80 | 18 | – | – | – |
| COc1cc(F)c(O[C@H]2CC[C@@H](C(=O)O)CC2)cc1C(=O)N[C@H]1[C@@H](C(=O)Nc2ccc(F)c(S(F)(F)(F)(F)F)c2)[C@@H]2C=C[C@H]1C2 [Example 488, (1S,4s)-4-(2-fluoro-5-(((1R,2R,3S,4S)-3-((4-fluoro-3-(pentafluoro-λ6-sulfaneyl)phenyl)carbamoyl)bicyclo[2.2.1]hept-5-en-2-yl)carbamoyl)-4-methoxyphenoxy)cyclohexane-1-carboxylic acid] | 0.13 | 23 | 1000 (≈ 667 µg/mL) | 22 | 115 | > 8.44 | 12 | – | – | – |
| CCOc1cc(F)c(O[C@H]2CC[C@@](C)(C(=O)O)CC2)cc1C(=O)N[C@@H]1[C@H]2CC[C@H](C2)[C@@H]1C(=O)NCC1(C)CCC1 [Example 385] | 4.1 | 50 | 780 (≈ 436 µg/mL) | 19 | 106 | – | 8 | – | – | – |
